Where two headings read alike, the source gives them in different places.
Legend:
IMP-1 = IMP-1 (Serratia marcescens, UniProt P52699); assay: biochemical; assay type: biochemical; settings: fluorescence assay, CCF2-FA substrate, 2 pM enzyme, 2 hours at 25° C.; read-out: IMP-1 IC50
Method in brief: (§1)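 Class B activity is measured in the presence of compound by fluorescence with CCF2-FA after a 2-hour incubation at 25° C. IC50 is taken from a 4-parameter fit of semi-logarithmic dose-response data.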

NDM-1 = NDM-1 (Klebsiella pneumoniae, UniProt C7C422); assay: biochemical; assay type: biochemical; settings: fluorescence assay, CCF2-FA substrate, 1 pM enzyme, 2 hours at 25° C.; read-out: NDM-1 IC50
Method in brief: as §1

VIM-1 = VIM-1 (Pseudomonas aeruginosa (strain ATCC 15692 / DSM 22644 / CIP 104116 / JCM 14847 / LMG 12228 / 1C / PRS 101 / PAO1), UniProt A0A0F7KYQ8); assay: biochemical; settings: CCF2-FA substrate, 30 pM enzyme, 2 hours at 25° C.
Method in brief: as §1

[1] = test system: Pseudomonas aeruginosa MB9798 vs MB9799; settings: ratio MITC95 PA_9798/MITC95 PA_9799
Method in brief: (§2)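 Steps: add fixed imipenem and/or ceftazidime (usually CLSI breakpoint) and fixed AmpC-directed class A/C inhibitor to microbroth MIC wells; titrate MBL inhibitor; record concentration regaining susceptibility for each PAO1-derived strain; divide efflux+ by efflux− value.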

[2] = test system: Escherichia coli expressing NDM-1 (CLB30005, CLB30016); assay type: cell-based; settings: with imipenem 1 μg/ml; 95% inhibition of bacterial growth
Method in brief: (§3)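 Clinical isolates (E. coli NDM-1, S. marcescens IMP-1, K. pneumoniae VIM-1) were diluted 1:100 from saline suspension into 1.1×CAMHB and exposed to test compound with imipenem at 1 μg/ml. Plates were incubated at 35° C for 22 hours to 24 hours, and growth was read by absorbance.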

[3] = test system: Serratia marcescens expressing IMP-1 (CL5741); assay type: cell-based; settings: with imipenem 1 μg/ml; 95% inhibition of bacterial growth
Method in brief: as §3

[4] = test system: Klebsiella pneumoniae expressing VIM-1 (IHMA599644); assay type: cell-based; settings: with imipenem 1 μg/ml; 95% inhibition of bacterial growth
Method in brief: as §3

[5] = test system: Pseudomonas aeruginosa efflux+ (MB9798), IMP-1; assay type: cell-based; settings: concentration restoring susceptibility to imipenem at 2 μg/mL in the presence of a class A, C, D serine β-lactamase inhibitor closely related to relebactam
Method in brief: as §2

[6] = test system: Pseudomonas aeruginosa efflux− (MB9799), IMP-1; assay type: cell-based; settings: concentration restoring susceptibility to imipenem at 2 μg/mL in the presence of a class A, C, D serine β-lactamase inhibitor closely related to relebactam
Method in brief: as §2

[7] = fluorescence assay, read-out: VIM-1 IC50

Sequence of NDM-1 (C7C422 whole entry, looked up, species assumed): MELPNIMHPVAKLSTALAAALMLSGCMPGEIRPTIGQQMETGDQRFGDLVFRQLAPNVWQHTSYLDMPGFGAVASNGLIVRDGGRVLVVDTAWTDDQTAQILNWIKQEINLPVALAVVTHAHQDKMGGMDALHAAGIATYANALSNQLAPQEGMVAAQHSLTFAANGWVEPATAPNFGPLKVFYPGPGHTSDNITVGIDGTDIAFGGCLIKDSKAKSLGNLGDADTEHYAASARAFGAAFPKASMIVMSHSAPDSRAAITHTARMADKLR
Sequence of IMP-1 (P52699 whole entry, looked up, species assumed): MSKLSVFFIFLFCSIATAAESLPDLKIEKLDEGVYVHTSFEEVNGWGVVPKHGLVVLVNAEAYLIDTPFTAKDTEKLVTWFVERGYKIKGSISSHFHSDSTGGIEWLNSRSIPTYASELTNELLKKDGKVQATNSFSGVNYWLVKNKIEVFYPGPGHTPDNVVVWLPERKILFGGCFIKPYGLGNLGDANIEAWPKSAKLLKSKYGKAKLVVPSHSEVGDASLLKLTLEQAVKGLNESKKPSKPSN

CC(CN1CCOCC1)NS(=O)(=O)c1ccc(-c2cccc3sc(N)nc23)c(-c2nnn[nH]2)c1S(N)(=O)=O (stereo not drawn) [Example 51, 4-(2-amino-1,3-benzothiazol-4-yl)-N1-(1-methyl-2-morpholin-4-ylethyl)-3-(1H-tetrazol-5-yl)benzene-1,2-disulfonamide]
IC50 (IMP-1): 0.393 nM
IC50 (NDM-1): 0.097 nM
IC50 (VIM-1; [7]): 0.441 nM
Efflux ratio [1]: 4.00
Escherichia coli expressing NDM-1 (CLB30016) MITC95 [2]: 25 µM
Serratia marcescens expressing IMP-1 (CL5741) MITC95 [3]: 12.5 µM
Klebsiella pneumoniae expressing VIM-1 (IHMA599644) MITC95 [4]: 25 µM
P. aeruginosa expressing IMP-1, efflux + (MB9798) MITC95 [5]: 25 µM
P. aeruginosa expressing IMP-1, efflux − (MB9799) MITC95 [6]: 6.25 µM

CN(C)CCCN(C)S(=O)(=O)c1ccc(-c2cccc3sc(N)nc23)c(-c2nnn[nH]2)c1S(N)(=O)=O [Example 52, 4-(2-amino-1,3-benzothiazol-4-yl)-N1-[3-(dimethylamino)propyl]-N~1~-methyl-3-(1H-tetrazol-5-yl)benzene-1,2-disulfonamide]
IC50 (IMP-1): 5.94 nM
IC50 (NDM-1): 15.3 nM
IC50 (VIM-1; [7]): 25.3 nM
Efflux ratio [1]: 2.00
Escherichia coli expressing NDM-1 (CLB30016) MITC95 [2]: 12.5 µM
Serratia marcescens expressing IMP-1 (CL5741) MITC95 [3]: 3.125 µM
Klebsiella pneumoniae expressing VIM-1 (IHMA599644) MITC95 [4]: 50 µM
P. aeruginosa expressing IMP-1, efflux + (MB9798) MITC95 [5]: 6.25 µM
P. aeruginosa expressing IMP-1, efflux − (MB9799) MITC95 [6]: 3.125 µM

CN1CCC(NS(=O)(=O)c2ccc(-c3cccc4sc(N)nc34)c(-c3nnn[nH]3)c2S(N)(=O)=O)C1 (stereo not drawn) [Example 53, 4-(2-amino-1,3-benzothiazol-4-yl)-N1-(1-methylpyrrolidin-3-yl)-3-(1H-tetrazol-5-yl)benzene-1,2-disulfonamide]
IC50 (IMP-1): 0.298 nM
IC50 (NDM-1): 0.0415 nM
IC50 (VIM-1; [7]): 0.192 nM
Efflux ratio [1]: 1.00
Escherichia coli expressing NDM-1 (CLB30016) MITC95 [2]: 3.125 µM
Serratia marcescens expressing IMP-1 (CL5741) MITC95 [3]: 1.563 µM
Klebsiella pneumoniae expressing VIM-1 (IHMA599644) MITC95 [4]: 3.125 µM
P. aeruginosa expressing IMP-1, efflux + (MB9798) MITC95 [5]: 1.563 µM
P. aeruginosa expressing IMP-1, efflux − (MB9799) MITC95 [6]: 1.563 µM

CN1CCC(N(C)S(=O)(=O)c2ccc(-c3cccc4sc(N)nc34)c(-c3nnn[nH]3)c2S(N)(=O)=O)C1 (stereo not drawn) [Example 54, 4-(2-amino-1,3-benzothiazol-4-yl)-N1-methyl-N1-(1-methylpyrrolidin-3-yl)-3-(1H-tetrazol-5-yl)benzene-1,2-disulfonamide]
IC50 (IMP-1): 1.93 nM
IC50 (NDM-1): 0.19 nM
IC50 (VIM-1; [7]): 3.64 nM
Efflux ratio [1]: 2.00
Escherichia coli expressing NDM-1 (CLB30016) MITC95 [2]: 6.25 µM
Serratia marcescens expressing IMP-1 (CL5741) MITC95 [3]: 3.125 µM
Klebsiella pneumoniae expressing VIM-1 (IHMA599644) MITC95 [4]: 6.25 µM
P. aeruginosa expressing IMP-1, efflux + (MB9798) MITC95 [5]: 6.25 µM
P. aeruginosa expressing IMP-1, efflux − (MB9799) MITC95 [6]: 3.125 µM

Nc1nc2c(-c3ccc(S(=O)(=O)N4CCC(N)(CO)C4)c(S(N)(=O)=O)c3-c3nnn[nH]3)cccc2s1 (stereo not drawn) [Example 55, 3-(2-amino-1,3-benzothiazol-4-yl)-6-{[3-amino-3-(hydroxymethyl)pyrrolidin-1-yl]sulfonyl}-2-(1H-tetrazol-5-yl)benzenesulfonamide]
IC50 (IMP-1): 0.86 nM
IC50 (NDM-1): 0.51 nM
IC50 (VIM-1; [7]): 1.46 nM
Efflux ratio [1]: 1.00
Escherichia coli expressing NDM-1 (CLB30016) MITC95 [2]: 3.125 µM
Serratia marcescens expressing IMP-1 (CL5741) MITC95 [3]: 3.125 µM
Klebsiella pneumoniae expressing VIM-1 (IHMA599644) MITC95 [4]: 6.25 µM
P. aeruginosa expressing IMP-1, efflux + (MB9798) MITC95 [5]: 3.125 µM
P. aeruginosa expressing IMP-1, efflux − (MB9799) MITC95 [6]: 3.125 µM

CCC1(NS(=O)(=O)c2ccc(-c3cccc4sc(N)nc34)c(-c3nnn[nH]3)c2S(N)(=O)=O)CCNC1 (stereo not drawn) [Example 56, 4-(2-amino-1,3-benzothiazol-4-yl)-N1-(3-ethylpyrrolidin-3-yl)-3-(1H-tetrazol-5-yl)benzene-1,2-disulfonamide]
IC50 (IMP-1): 0.342 nM
IC50 (NDM-1): 0.0519 nM
IC50 (VIM-1; [7]): 0.245 nM
Efflux ratio [1]: 1.00
Escherichia coli expressing NDM-1 (CLB30016) MITC95 [2]: 1.563 µM
Serratia marcescens expressing IMP-1 (CL5741) MITC95 [3]: 3.125 µM
Klebsiella pneumoniae expressing VIM-1 (IHMA599644) MITC95 [4]: 3.125 µM
P. aeruginosa expressing IMP-1, efflux + (MB9798) MITC95 [5]: 1.563 µM
P. aeruginosa expressing IMP-1, efflux − (MB9799) MITC95 [6]: 1.563 µM

CC1(NS(=O)(=O)c2ccc(-c3cccc4sc(N)nc34)c(-c3nnn[nH]3)c2S(N)(=O)=O)CCCNC1 (stereo not drawn) [Example 57, 4-(2-amino-1,3-benzothiazol-4-yl)-N1-(3-methylpiperidin-3-yl)-3-(1H-tetrazol-5-yl)benzene-1,2-disulfonamide]
IC50 (IMP-1): 0.554 nM
IC50 (NDM-1): 0.0853 nM
IC50 (VIM-1; [7]): 0.355 nM
Efflux ratio [1]: 1.00
Escherichia coli expressing NDM-1 (CLB30016) MITC95 [2]: 3.125 µM
Serratia marcescens expressing IMP-1 (CL5741) MITC95 [3]: 6.25 µM
Klebsiella pneumoniae expressing VIM-1 (IHMA599644) MITC95 [4]: 3.125 µM
P. aeruginosa expressing IMP-1, efflux + (MB9798) MITC95 [5]: 3.125 µM
P. aeruginosa expressing IMP-1, efflux − (MB9799) MITC95 [6]: 3.125 µM

Nc1nc2c(-c3ccc(S(=O)(=O)N[C@@H]4CNC[C@@H]4F)c(S(N)(=O)=O)c3-c3nnn[nH]3)cccc2s1 [Example 58, 4-(2-amino-1,3-benzothiazol-4-yl)-N1-[(3R,4S)-4-fluoropyrrolidin-3-yl]-3-(1H-tetrazol-5-yl)benzene-1,2-disulfonamide]
IC50 (IMP-1): 0.759 nM
IC50 (NDM-1): 0.0686 nM
IC50 (VIM-1; [7]): 0.404 nM
Efflux ratio [1]: 1.00
Escherichia coli expressing NDM-1 (CLB30016) MITC95 [2]: 1.563 µM
Serratia marcescens expressing IMP-1 (CL5741) MITC95 [3]: 1.563 µM
Klebsiella pneumoniae expressing VIM-1 (IHMA599644) MITC95 [4]: 3.125 µM
P. aeruginosa expressing IMP-1, efflux + (MB9798) MITC95 [5]: 1.563 µM
P. aeruginosa expressing IMP-1, efflux − (MB9799) MITC95 [6]: 1.563 µM

Nc1nc2c(-c3ccc(S(=O)(=O)N[C@H]4CNC[C@@H]4F)c(S(N)(=O)=O)c3-c3nnn[nH]3)cccc2s1 [Example 59, 4-(2-amino-1,3-benzothiazol-4-yl)-N1-[(3S,4S)-4-fluoropyrrolidin-3-yl]-3-(1H-tetrazol-5-yl)benzene-1,2-disulfonamide]
IC50 (IMP-1): 0.558 nM
IC50 (NDM-1): 0.0357 nM
IC50 (VIM-1; [7]): 0.309 nM
Efflux ratio [1]: 1.00
Escherichia coli expressing NDM-1 (CLB30016) MITC95 [2]: 1.563 µM
Serratia marcescens expressing IMP-1 (CL5741) MITC95 [3]: 1.563 µM
Klebsiella pneumoniae expressing VIM-1 (IHMA599644) MITC95 [4]: 3.125 µM
P. aeruginosa expressing IMP-1, efflux + (MB9798) MITC95 [5]: 1.563 µM
P. aeruginosa expressing IMP-1, efflux − (MB9799) MITC95 [6]: 1.563 µM

Nc1nc2c(-c3ccc(S(=O)(=O)N[C@H]4CCNC4)c(S(N)(=O)=O)c3-c3nnn[nH]3)cccc2s1 [Example 60, 4-(2-amino-1,3-benzothiazol-4-yl)-N1-[(3S)-pyrrolidin-3-yl]-3-(1H-tetrazol-5-yl)benzene-1,2-disulfonamide]
IC50 (IMP-1): 0.679 nM
IC50 (NDM-1): 0.0765 nM
IC50 (VIM-1; [7]): 0.236 nM
Efflux ratio [1]: 0.50
Escherichia coli expressing NDM-1 (CLB30016) MITC95 [2]: 3.125 µM
Serratia marcescens expressing IMP-1 (CL5741) MITC95 [3]: 1.563 µM
Klebsiella pneumoniae expressing VIM-1 (IHMA599644) MITC95 [4]: 3.125 µM
P. aeruginosa expressing IMP-1, efflux + (MB9798) MITC95 [5]: 0.7813 µM
P. aeruginosa expressing IMP-1, efflux − (MB9799) MITC95 [6]: 1.563 µM

Nc1nc2c(-c3ccc(S(=O)(=O)N4CC[C@H](N)C4)c(S(N)(=O)=O)c3-c3nnn[nH]3)cccc2s1 [Example 61, 3-(2-amino-1,3-benzothiazol-4-yl)-6-{[(3S)-3-aminopyrrolidin-1-yl]sulfonyl}-2-(1H-tetrazol-5-yl)benzenesulfonamide]
IC50 (IMP-1): 1.47 nM
IC50 (NDM-1): 0.976 nM
IC50 (VIM-1; VIM-1 IC50, fluorescence assay): 1.44 nM
Efflux ratio [1]: 1.00
Escherichia coli expressing NDM-1 (CLB30016) MITC95 [2]: 3.125 µM
Serratia marcescens expressing IMP-1 (CL5741) MITC95 [3]: 3.125 µM
Klebsiella pneumoniae expressing VIM-1 (IHMA599644) MITC95 [4]: 3.125 µM
P. aeruginosa expressing IMP-1, efflux + (MB9798) MITC95 [5]: 1.563 µM
P. aeruginosa expressing IMP-1, efflux − (MB9799) MITC95 [6]: 1.563 µM

Source: patent US10221163B2 (priority 2015, dated 2019)
